ChEMBL document CHEMBL3596172 (J Med Chem, 2015)

Target: D(3) dopamine receptor (Homo sapiens, UniProt P35462)
Experiment: biochemical
Description: Displacement of [3H]-N-methylspiperone from human dopamine D3 receptor (unknown origin) expressed in HEK293 cells after 1 hr by liquid scintillation counting

Sequence of D(3) dopamine receptor (P35462 whole entry): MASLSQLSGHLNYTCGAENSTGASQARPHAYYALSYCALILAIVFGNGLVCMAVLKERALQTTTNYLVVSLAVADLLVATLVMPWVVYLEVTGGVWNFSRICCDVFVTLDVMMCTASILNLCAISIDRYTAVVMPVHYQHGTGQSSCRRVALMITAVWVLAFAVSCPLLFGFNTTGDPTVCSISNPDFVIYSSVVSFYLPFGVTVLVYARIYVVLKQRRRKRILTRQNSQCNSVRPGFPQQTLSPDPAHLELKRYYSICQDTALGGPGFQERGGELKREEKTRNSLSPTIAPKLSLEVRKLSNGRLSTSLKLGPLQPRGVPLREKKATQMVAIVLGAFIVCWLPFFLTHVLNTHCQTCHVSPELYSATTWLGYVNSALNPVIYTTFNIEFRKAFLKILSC

SMILES	Ki [nM]
COc1ccccc1N1CCN(CCCCNC(=O)c2ccc3ccccc3n2)CC1	3.46
O=C(NCCCCN1CCN(c2cccc3ccccc23)CC1)c1cc2ccccc2o1	0.244
COc1c(Cl)cccc1N1CCN(CC(O)CCNC(=O)c2cnc3ccccc3c2)CC1 (stereo not given)	31.6
O=C(NCCCCN1CCN(c2cccc(Cl)c2Cl)CC1)c1cnc2ccc(F)cc2c1	0.57
O=C(NCCC(O)CN1CCN(c2cccc(Cl)c2Cl)CC1)c1cnc2ccc(F)cc2c1 (stereo not given)	8.05
COc1c(Cl)cccc1N1CCN(CCCCNC(=O)c2cc3ccccc3o2)CC1	0.907
COc1ccc2[nH]c(C(=O)NCCCCN3CCN(c4cccc5ccccc45)CC3)cc2c1	0.173
COc1ccccc1N1CCN(CC(O)CCNC(=O)c2ccc3ccccc3n2)CC1 (stereo not given)	97.9
COc1ccccc1N1CCN(CCCCNC(=O)c2ccc3cc(F)ccc3n2)CC1	2.51
COc1ccccc1N1CCN(CC(O)CCNC(=O)c2ccc3cc(F)ccc3n2)CC1 (stereo not given)	53.1
COc1ccccc1N1CCN(CCCCNC(=O)c2cnc3ccc(F)cc3c2)CC1	2.14
COc1ccccc1N1CCN(CC(O)CCNC(=O)c2cnc3ccc(F)cc3c2)CC1 (stereo not given)	44.8
COc1ccccc1N1CCN(CC(O)CCNC(=O)c2cnc3ccc(C)cc3c2)CC1 (stereo not given)	52.9
COc1ccc2ncc(C(=O)NCCC(O)CN3CCN(c4ccccc4OC)CC3)cc2c1 (stereo not given)	69.9
COc1ccccc1N1CCN(CC(O)CCNC(=O)c2ccc3cccnc3c2)CC1 (stereo not given)	37.7
